Assay results reported in patent US9440950B2, “Arginine methyltransferase inhibitors and uses thereof” (Epizyme, Inc., priority 2013, dated 2016).
pIC50: −log10 of the molar value.

Molecular target: T1, human PRMT3 (Homo sapiens, UniProt O60678)
T1 construct: GST-tagged PRMT3; made in house; host or cells: E. coli BL21(DE3) Gold (pGEX-KG)
Experiment: PRMT3 Biochemical Assay
Settings: peptide substrate, 3H-SAM Flashplate assay
Excerpt: S-adenosylmethionine (SAM), S-adenosylhomocysteine (SAH), bicine, Tween20, dimethylsulfoxide (DMSO), bovine skin gelatin (BSG), isopropyl-P3-D-thiogalactopyranoside (IPTG), and Tris(2-carboxyethyl)phosphine hydrochloride solution (TCEP) were purchased from Sigma-Aldrich at the highest level of purity possible. ^3H-SAM was purchase from American Radiolabeled Chemicals with a specific activity of 80 Ci/mmol. 384-well streptavidin Flashplates were purchased from PerkinElmer.
Peptide containing the classic RMT substrate motif was synthesized with an N-terminal linker-affinity tag motif and a C-terminal amide cap by 21st Century Biochemicals. The peptide was purified by high-performance liquid chromatography (HPLC) to greater than 95% purity and confirmed by liquid chromatography mass spectrometry (LC-MS). The sequence was Biot-Ahx-[…]-amide (SEQ ID NO.:11).
Full-length human PRMT3 (NM_005788.3) isoform 1 transcript clone was amplified from an HEK 293 cDNA library and subcloned into pGEX-KG (GE Life Sciences). The resulting construct encodes an N-terminal GST tag and a thrombin cleavage sequence ([…] […] […] […]) (SEQ ID NO.: 12) fused directly to Cys 2 of PRMT3.
E. coli (BL21(DE3) Gold, Stratagene) made competent by the CaCl2 method were transformed with the PRMT3 construct and ampicillin selection. Protein over-expression was accomplished by growing the PRMT3 expressing E. coli clone and inducing expression with 0.3 mM IPTG at 16° C. The culture was grown for 12 hours, harvested by centrifugation, and stored at −80° C. for purification.
GST-tagged PRMT3 eluted with 25-400 mM phosphate in buffer C. Protein was concentrated and buffer was exchanged to 20 mM Tris, 150 mM NaCl, 5% glycerol, 5 mM β-mercaptoethanol, pH7.8 by ultrafiltration. The purity of recovered protein was 70%.
General Procedure for PRMT3 Enzyme Assays on Peptide Substrates.
The assays were all performed in a buffer consisting of 20 mM Bicine (pH=7.6), 1 mM TCEP, 0.005% BSG, and 0.002% Tween 20, prepared on the day of use. Compounds in 100% DMSO (1 ul) were spotted into a polypropylene 384-well V-bottom plates (Greiner) using a Platemate Plus outfitted with a 384-channel head (Thermo Scientific). DMSO (1 ul) was added to Columns 11, 12, 23, 24, rows A-H for the maximum signal control and 1 ul of SAH, a known product and inhibitor of PRMT3, was added to columns 11, 12, 23, 24, rows I-P for the minimum signal control. A cocktail (40 ul) containing the PRMT3 enzyme was added by Multidrop Combi (Thermo-Fisher). The compounds were allowed to incubate with PRMT3 for 30 min at room temperature, then a cocktail (10 ul) containing SAM and peptide was added to initiate the reaction (final volume=51 ul). The final concentrations of the components were as follows: PRMT3 was 0.5 nM, ^3H-SAM was 100 nM, non-radiolabeled SAM was 1.8 uM, peptide was 330 nM, SAH in the minimum signal control wells was 1 mM, and the DMSO concentration was 2%. The assays were stopped by the addition of potassium chloride (10 ul) to a final concentration of 100 mM. 50 ul of the reaction in the 384-well polypropylene plate was then transferred to a 384-well Flashplate and the biotinylated peptides were allowed to bind to the streptavidin surface for at least 1 hour before being washed once with 0.1% Tween20 in a Biotek ELx405 plate washer. The plates were then read in a PerkinElmer TopCount plate reader to measure the quantity of ^3H-labeled peptide bound to the Flashplate surface, measured as disintegrations per minute (dpm) or alternatively, referred to as counts per minute (cpm).
Where dpm=disintegrations per minute, cmpd=signal in assay well, and min and max are the respective minimum and maximum signal controls.
Where top and bottom are the normally allowed to float, but may be fixed at 100 or 0 respectively in a 3-parameter fit. The Hill Coefficient normally allowed to float but may also be fixed at 1 in a 3-parameter fit. […]

T1 sequence (O60678 with tags, fused parts or gaps): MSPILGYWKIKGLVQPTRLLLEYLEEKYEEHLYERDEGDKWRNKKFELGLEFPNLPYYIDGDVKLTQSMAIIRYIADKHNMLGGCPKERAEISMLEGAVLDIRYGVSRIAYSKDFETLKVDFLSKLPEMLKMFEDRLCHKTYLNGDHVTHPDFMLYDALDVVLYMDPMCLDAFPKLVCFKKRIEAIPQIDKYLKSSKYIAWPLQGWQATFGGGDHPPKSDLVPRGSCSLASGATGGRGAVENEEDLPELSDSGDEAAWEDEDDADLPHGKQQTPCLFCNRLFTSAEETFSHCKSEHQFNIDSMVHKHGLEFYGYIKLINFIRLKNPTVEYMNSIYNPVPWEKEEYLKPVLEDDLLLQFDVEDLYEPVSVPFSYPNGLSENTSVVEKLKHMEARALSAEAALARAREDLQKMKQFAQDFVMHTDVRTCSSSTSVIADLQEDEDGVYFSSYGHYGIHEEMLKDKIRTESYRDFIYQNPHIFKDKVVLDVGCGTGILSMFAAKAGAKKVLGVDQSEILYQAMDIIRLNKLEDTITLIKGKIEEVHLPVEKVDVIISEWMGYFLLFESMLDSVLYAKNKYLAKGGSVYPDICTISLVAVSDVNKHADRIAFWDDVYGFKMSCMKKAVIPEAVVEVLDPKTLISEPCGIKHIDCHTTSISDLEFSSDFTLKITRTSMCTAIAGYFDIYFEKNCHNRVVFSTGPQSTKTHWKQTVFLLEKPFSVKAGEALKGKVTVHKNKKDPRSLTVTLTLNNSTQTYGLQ

pIC50 | Compound
≤ 5.00 | CNCCN(C)Cc1c[nH]nc1-c1cccnc1 [Compound 1]
≤ 5.00 | CNCCN(C)Cc1c[nH]nc1-c1ccc(O)nc1 [Compound 2]
≤ 5.00 | CNCCN(C)Cc1c[nH]nc1-c1ccc(N)nc1 [Compound 3]
≤ 5.00 | COc1ccc(-c2n[nH]cc2CN(C)CCN)cn1 [Compound 5]
≤ 5.00 | Cc1cncc(-c2n[nH]cc2CN(C)CCN)c1 [Compound 6]
≤ 5.00 | CN(CCN)Cc1c[nH]nc1-c1cccnc1 [Compound 8]
5.52 to 6.00 | CN(CCN)Cc1c[nH]nc1-c1ccncc1 [Compound 9]
5.52 to 6.00 | Cc1cc(-c2n[nH]cc2CN(C)CCN)cnc1Cl [Compound 10]
≤ 5.00 | COc1cc(-c2n[nH]cc2CN(C)CCN)ccn1 [Compound 11]
5.00 to 5.52 | CN(CCN)Cc1c[nH]nc1-c1ccc(C(F)(F)F)nc1 [Compound 13, N^1-methyl-N^1-((3-(6-(trifluoromethyl)pyridin-3-yl)-1H-pyrazol-4-yl)methyl)ethane-1,2-diamine]

The next lines start with the molecule.

Compound | pIC50
CN(CCN)Cc1c[nH]nc1-c1cncc(S(C)(=O)=O)c1 [Compound 4] | ≤ 5.00
CN(CCN)Cc1c[nH]nc1-c1cncc(F)c1 [Compound 7] | 5.00 to 5.52
COc1cc(-c2n[nH]cc2CN(C)CCN)c(Cl)cn1 [Compound 12] | ≤ 5.00
COc1ncc(Cl)cc1-c1n[nH]cc1CN(C)CCN [Compound 14] | ≤ 5.00
COc1ncccc1-c1n[nH]cc1CN(C)CCN [Compound 15] | ≤ 5.00
COc1ccncc1-c1n[nH]cc1CN(C)CCN [Compound 16] | ≤ 5.00
Cc1ccncc1-c1n[nH]cc1CN(C)CCN [Compound 17] | ≤ 5.00
CN(CCN)Cc1c[nH]nc1-c1cncc(C#N)c1 [Compound 18] | ≤ 5.00
CN(CCN)Cc1c[nH]nc1-c1cncc(Cl)c1 [Compound 19] | 5.52 to 6.00
